Experiments:
[1] = Stability in simulated gastric fluid at 10 uM at pH 1 measured at 15 mins; assay type: ADME; conditions: read-out: Stability
[2] = Stability in simulated gastric fluid at 10 uM at pH 1 measured at 60 mins; assay type: ADME; conditions: read-out: Stability
[3] = Stability in simulated gastric fluid at 10 uM at pH 4 measured at 60 mins; assay type: ADME; conditions: read-out: Stability
[4] = tested on: Mus musculus; test: Total plasma concentration in CD1 mouse assessed as (2R,3R,4R,5R,6R)-5-acetamido-4-amino-2,3-difluoro-6-((1R,2R)-1,2,3-trihydroxypropyl)tetrahydro-2H-pyran-2-carboxylic acid at 30 mg/kg, po measured at 60 mins by reversed-phase UPLC/MS analysis; assay type: ADME, organism-based; parameters: dose 30 mg/kg, route oral; conditions: in vivo, 1 h
[5] = tested on: Mus musculus; test: AUC in CD1 mouse assessed as (2R,3R,4R,5R,6R)-5-acetamido-4-amino-2,3-difluoro-6-((1R,2R)-1,2,3-trihydroxypropyl)tetrahydro-2H-pyran-2-carboxylic acid at 30 mg/kg, po; assay type: ADME, organism-based, Plasma; parameters: dose 30 mg/kg, route oral; conditions: in vivo
[6] = tested on: Mus musculus; test: Total plasma concentration in CD1 mouse assessed as (2R,3R,4R,5R,6R)-5-acetamido-4-amino-2,3-difluoro-6-((1R,2R)-1,2,3-trihydroxypropyl)tetrahydro-2H-pyran-2-carboxylic acid at 30 mg/kg, po measured at 20 mins by reversed-phase UPLC/MS analysis; assay type: ADME, organism-based; parameters: dose 30 mg/kg, route oral; conditions: in vivo
[7] = Metabolic stability in mouse plasma at 10 uM measured at 15 mins; assay type: ADME, cell-free; conditions: read-out: Stability
[8] = tested on: Mus musculus; test: Tmax in CD1 mouse assessed as (2R,3R,4R,5R,6R)-5-acetamido-4-amino-2,3-difluoro-6-((1R,2R)-1,2,3-trihydroxypropyl)tetrahydro-2H-pyran-2-carboxylic acid at 30 mg/kg, po; assay type: ADME, organism-based; parameters: dose 30 mg/kg, route oral; conditions: in vivo
[9] = Stability in simulated gastric fluid at 10 uM at pH 4 measured at 15 mins; assay type: ADME; conditions: read-out: Stability
[10] = Metabolic stability in mouse plasma at 10 uM measured at 60 mins; assay type: ADME, cell-free; conditions: read-out: Stability
[11] = tested on: Mus musculus; test: Cmax in CD1 mouse assessed as (2R,3R,4R,5R,6R)-5-acetamido-4-amino-2,3-difluoro-6-((1R,2R)-1,2,3-trihydroxypropyl)tetrahydro-2H-pyran-2-carboxylic acid at 30 mg/kg, po; assay type: ADME, organism-based; parameters: dose 30 mg/kg, route oral; conditions: in vivo
[12] = tested on: Mus musculus; test: Oral bioavailability in CD1 mouse assessed as (2R,3R,4R,5R,6R)-5-acetamido-4-amino-2,3-difluoro-6-((1R,2R)-1,2,3-trihydroxypropyl)tetrahydro-2H-pyran-2-carboxylic acid at 30 mg/kg; assay type: ADME, organism-based; conditions: in vivo
[13] = Total plasma concentration in CD1 mouse at 30 mg/kg, po measured at 20 mins by reversed-phase UPLC/MS analysis; assay type: ADME, organism-based; parameters: dose 30 mg/kg, route oral
[14] = Total plasma concentration in CD1 mouse at 30 mg/kg, po measured at 60 mins by reversed-phase UPLC/MS analysis; assay type: ADME, organism-based; parameters: dose 30 mg/kg, route oral

concentration [4] [nM] | concentration [6] [nM] | SMILES | other results
11300 | 9930 | COC(=O)[C@]1(F)O[C@@H]([C@H](O)[C@H](O)COC(=O)OCC(C)C)[C@H](NC(C)=O)[C@@H](N)[C@H]1F | remaining at 0.25 h, 10 µM [1]: 90%; remaining at 1 h, 10 µM [2]: 74%; remaining at 1 h, 10 µM [3]: 86%; AUC [5]: 293 µmol·min; remaining at 0.25 h, 10 µM [7]: 81%; Tmax [8]: 1 h; remaining at 0.25 h, 10 µM [9]: 98%; remaining at 1 h, 10 µM [10]: 17%; Cmax [11]: 2700 nM; F [12]: 3.9%
3750 | 1400 | CC(=O)N[C@@H]1[C@@H](N)[C@@H](F)[C@](F)(C(=O)OCCC(=O)N(C)C)O[C@H]1[C@H](O)[C@H](O)CO | –
2150 | 1140 | CC(=O)N[C@@H]1[C@@H](N)[C@@H](F)[C@](F)(C(=O)NC2CCCCC2)O[C@H]1[C@H](O)[C@H](O)CO | –
1390 | 690 | CC(=O)N[C@@H]1[C@@H](N)[C@@H](F)[C@](F)(C(=O)NCCO)O[C@H]1[C@H](O)[C@H](O)CO | –
1690 | 490 | COC(=O)[C@]1(F)O[C@@H]([C@H](O)[C@H]2COC3(CCCC3)O2)[C@H](NC(C)=O)[C@@H](N)[C@H]1F | –
800 | 290 | CC(=O)N[C@@H]1[C@@H](N)[C@@H](F)[C@](F)(C(=O)OCCCCCOC(=O)c2ccc3ccccc3c2O)O[C@H]1[C@H](O)[C@H](O)CO | –
3330 | 710 | CC(=O)N[C@@H]1[C@@H](N)[C@@H](F)[C@](F)(C(N)=O)O[C@H]1[C@H](O)[C@H](O)CO | –
6880 | 2970 | CCCCCCCCOC(=O)OC[C@@H](O)[C@@H](O)[C@@H]1O[C@@](F)(C(=O)OC)[C@H](F)[C@H](N)[C@H]1NC(C)=O | remaining at 0.25 h, 10 µM [1]: 99%; remaining at 1 h, 10 µM [2]: 90%; remaining at 1 h, 10 µM [3]: 88%; AUC [5]: 452 µmol·min; Tmax [8]: 1 h; remaining at 0.25 h, 10 µM [9]: 94%; Cmax [11]: 4100 nM; F [12]: 6.7%
3360 | 1300 | CC(=O)N[C@@H]1[C@@H](N)[C@@H](F)[C@](F)(C(=O)OCCCOC(=O)C(C)(C)C)O[C@H]1[C@H](O)[C@H](O)CO | –
2880 | 1030 | CC(=O)N[C@@H]1[C@@H](N)[C@@H](F)[C@](F)(C(=O)OC2CCCC2)O[C@H]1[C@H](O)[C@H](O)CO | –
– | – | CC(=O)N[C@H]1[C@H]([C@H](O)[C@H](O)CO)OC(C(=O)O)=C[C@@H]1N=C(N)N [ZANAMIVIR] | concentration at 20 min [13]: 1310 nM; concentration at 1 h [14]: 1300 nM
4390 | 5690 | CC(=O)N[C@@H]1[C@@H](N)[C@@H](F)[C@](F)(C(=O)OCC(=O)N(C)C)O[C@H]1[C@H](O)[C@H](O)CO | remaining at 0.25 h, 10 µM [1]: 53%; remaining at 1 h, 10 µM [2]: 25%; remaining at 1 h, 10 µM [3]: 74%; remaining at 0.25 h, 10 µM [9]: 88%
3770 | 1870 | CC(=O)N[C@@H]1[C@@H](N)[C@@H](F)[C@](F)(C(=O)OCCCCCOC(=O)C(C)(C)C)O[C@H]1[C@H](O)[C@H](O)CO | –
6010 | 2100 | COC(=O)[C@]1(F)O[C@@H]([C@H](O)[C@H](O)COC(=O)OCC(C)(C)C)[C@H](NC(C)=O)[C@@H](N)[C@H]1F | –
300 | 250 | CC(=O)N[C@@H]1[C@@H](N)[C@@H](F)[C@](F)(C(=O)OCCCOC(=O)c2ccc3ccccc3c2O)O[C@H]1[C@H](O)[C@H](O)CO | –
5340 | 6440 | COC(=O)[C@]1(F)O[C@@H]([C@H](O)[C@H](O)CO)[C@H](NC(C)=O)[C@@H](N)[C@H]1F | remaining at 0.25 h, 10 µM [1]: 100%; remaining at 1 h, 10 µM [2]: 75%; remaining at 1 h, 10 µM [3]: 99%; AUC [5]: 219 µmol·min; remaining at 0.25 h, 10 µM [7]: 90%; Tmax [8]: 1 h; remaining at 0.25 h, 10 µM [9]: 100%; remaining at 1 h, 10 µM [10]: 6%; Cmax [11]: 1600 nM; F [12]: 2.2%
3580 | 2070 | CCOC(=O)[C@]1(F)O[C@@H]([C@H](O)[C@H](O)CO)[C@H](NC(C)=O)[C@@H](N)[C@H]1F | –
810 | 310 | CC(=O)N[C@@H]1[C@@H](N)[C@@H](F)[C@](F)(C(=O)NCc2cccc(F)c2)O[C@H]1[C@H](O)[C@H](O)CO | –

concentration [4] [nM] | concentration [6] [nM] | SMILES | other results
590 | 270 | CC(=O)N[C@@H]1[C@@H](N)[C@@H](F)[C@](F)(C(=O)NCc2ccccc2)O[C@H]1[C@H](O)[C@H](O)CO | –
750 | 620 | COC(=O)[C@]1(F)O[C@@H]([C@H](O)[C@H](O)COC(=O)OCC2c3ccccc3-c3ccccc32)[C@H](NC(C)=O)[C@@H](N)[C@H]1F | –
2250 | 1950 | CCC1(CC)OC[C@H]([C@@H](O)[C@@H]2O[C@@](F)(C(=O)OC)[C@H](F)[C@H](N)[C@H]2NC(C)=O)O1 | –
2920 | 440 | CCCCCCCCCCCCOC(=O)[C@]1(F)O[C@@H]([C@H](O)[C@H](O)CO)[C@H](NC(C)=O)[C@@H](N)[C@H]1F | –
2690 | 1680 | COC(=O)[C@]1(F)O[C@@H]([C@H](O)[C@H](O)COC(=O)OC(C)C)[C@H](NC(C)=O)[C@@H](N)[C@H]1F | –
3500 | 2740 | CCCCCOC(=O)[C@]1(F)O[C@@H]([C@H](O)[C@H](O)CO)[C@H](NC(C)=O)[C@@H](N)[C@H]1F | remaining at 0.25 h, 10 µM [1]: 99%; remaining at 1 h, 10 µM [2]: 96%; remaining at 1 h, 10 µM [3]: 100%; AUC [5]: 462 µmol·min; remaining at 0.25 h, 10 µM [7]: 81%; Tmax [8]: 1 h; remaining at 0.25 h, 10 µM [9]: 100%; remaining at 1 h, 10 µM [10]: 24%; Cmax [11]: 4700 nM; F [12]: 5.5%
– | 90 | COC(=O)OC[C@@H](O)[C@@H](O)[C@@H]1O[C@@](F)(C(=O)OC)[C@H](F)[C@H](N)[C@H]1NC(C)=O | –
4670 | 3410 | CC(=O)N[C@@H]1[C@@H](N)[C@@H](F)[C@](F)(C(=O)OCC2CCCCC2)O[C@H]1[C@H](O)[C@H](O)CO | remaining at 0.25 h, 10 µM [1]: 100%; remaining at 1 h, 10 µM [2]: 100%; remaining at 1 h, 10 µM [3]: 100%; AUC [5]: 736 µmol·min; remaining at 0.25 h, 10 µM [7]: 98%; Tmax [8]: 1 h; remaining at 0.25 h, 10 µM [9]: 100%; remaining at 1 h, 10 µM [10]: 64%; Cmax [11]: 1200 nM; F [12]: 9.3%
2550 | 1000 | CCOP(=O)(OCC)OC[C@@H](O)[C@@H](O)[C@@H]1O[C@@](F)(C(=O)OC)[C@H](F)[C@H](N)[C@H]1NC(C)=O | –
13000 | 12200 | CC(=O)N[C@@H]1[C@@H](N)[C@@H](F)[C@](F)(C(=O)OC(C)C)O[C@H]1[C@H](O)[C@H](O)CO | remaining at 0.25 h, 10 µM [1]: 100%; remaining at 1 h, 10 µM [2]: 98%; remaining at 1 h, 10 µM [3]: 99%; AUC [5]: 78 µmol·min; remaining at 0.25 h, 10 µM [7]: 100%; Tmax [8]: 1 h; remaining at 0.25 h, 10 µM [9]: 99%; remaining at 1 h, 10 µM [10]: 87%; Cmax [11]: 500 nM; F [12]: 0.9%
840 | 660 | CC(=O)N[C@@H]1[C@@H](N)[C@@H](F)[C@](F)(C(=O)NCc2ccccc2F)O[C@H]1[C@H](O)[C@H](O)CO | –
4390 | 2550 | COC(=O)CNC(=O)[C@]1(F)O[C@@H]([C@H](O)[C@H](O)CO)[C@H](NC(C)=O)[C@@H](N)[C@H]1F | –
390 | – | COC(=O)[C@]1(F)O[C@@H]([C@H](O)[C@H]2COC3(CCCCC3)O2)[C@H](NC(C)=O)[C@@H](N)[C@H]1F | –
730 | 620 | COC(=O)[C@]1(F)O[C@@H]([C@H](O)[C@H]2COC(C(C)C)(C(C)C)O2)[C@H](NC(C)=O)[C@@H](N)[C@H]1F | –
7110 | 3230 | CCCCCCCCOC(=O)[C@]1(F)O[C@@H]([C@H](O)[C@H](O)CO)[C@H](NC(C)=O)[C@@H](N)[C@H]1F | –
620 | 960 | COC(=O)[C@]1(F)O[C@@H]([C@H](O)[C@H](O)COP(=O)(OC)OC)[C@H](NC(C)=O)[C@@H](N)[C@H]1F | –
4020 | 2540 | CC(=O)N[C@@H]1[C@@H](N)[C@@H](F)[C@](F)(C(=O)OCCCCC(F)(F)F)O[C@H]1[C@H](O)[C@H](O)CO | –
730 | 350 | COC(=O)[C@]1(F)O[C@@H]([C@H](O)[C@H]2COC(=O)O2)[C@H](NC(C)=O)[C@@H](N)[C@H]1F | –
